For data set [1] the following is noted: cited from earlier work.
The conditions of data set [2]: in vivo; cited from earlier work.
Data set [3] concerns patients suffering from tics. In words: Study in five patients suffering from tics who failed standard drug therapies. It is filed as in vivo, human. Particulars: five patients non-responsive to standard tic therapies; 250 mg BID or 500 mg BID to 1500 mg BID. As to the method:
Patients received either Low (250 mg BID) or standard doses (500 mg BID to 1500 mg BID) of levetiracetam.

Consider `CC[C@@H](C(N)=O)N1CCCC1=O` [levetiracetam, (S)-2-(2-Oxo-pyrrolidin-1-yl)-butyramide], for which the “levetiracetam excreted unchanged or as an inactive metabolite” value in data set [1] (in vivo) is 90%. The oral bioavailability in data set [1] (oral) is recorded as roughly 100%. For the same compound, in data set [2], the side effects result is “minimal side effects”. Further, the “reduction of tic symptoms” value in data set [3] was “majority of patients experienced a reduction of tic symptoms”.

(Values after patent publication US20040116505A1, “Treatment of tics, tremors and related disorders” (priority 2001, published 2004).)
